Structures are written as SMILES.

For assay [1], the target named is T1, rat MTP (microsomal triglyceride transfer protein) (Rattus norvegicus, UniProt D4A1W8).
T1 construct: homogenate (120 g/210 mL) of rat liver; from tissue; host or cells: rat liver microsomes, deoxycholate-released soluble protein
T1 sequence (D4A1W8 22-896): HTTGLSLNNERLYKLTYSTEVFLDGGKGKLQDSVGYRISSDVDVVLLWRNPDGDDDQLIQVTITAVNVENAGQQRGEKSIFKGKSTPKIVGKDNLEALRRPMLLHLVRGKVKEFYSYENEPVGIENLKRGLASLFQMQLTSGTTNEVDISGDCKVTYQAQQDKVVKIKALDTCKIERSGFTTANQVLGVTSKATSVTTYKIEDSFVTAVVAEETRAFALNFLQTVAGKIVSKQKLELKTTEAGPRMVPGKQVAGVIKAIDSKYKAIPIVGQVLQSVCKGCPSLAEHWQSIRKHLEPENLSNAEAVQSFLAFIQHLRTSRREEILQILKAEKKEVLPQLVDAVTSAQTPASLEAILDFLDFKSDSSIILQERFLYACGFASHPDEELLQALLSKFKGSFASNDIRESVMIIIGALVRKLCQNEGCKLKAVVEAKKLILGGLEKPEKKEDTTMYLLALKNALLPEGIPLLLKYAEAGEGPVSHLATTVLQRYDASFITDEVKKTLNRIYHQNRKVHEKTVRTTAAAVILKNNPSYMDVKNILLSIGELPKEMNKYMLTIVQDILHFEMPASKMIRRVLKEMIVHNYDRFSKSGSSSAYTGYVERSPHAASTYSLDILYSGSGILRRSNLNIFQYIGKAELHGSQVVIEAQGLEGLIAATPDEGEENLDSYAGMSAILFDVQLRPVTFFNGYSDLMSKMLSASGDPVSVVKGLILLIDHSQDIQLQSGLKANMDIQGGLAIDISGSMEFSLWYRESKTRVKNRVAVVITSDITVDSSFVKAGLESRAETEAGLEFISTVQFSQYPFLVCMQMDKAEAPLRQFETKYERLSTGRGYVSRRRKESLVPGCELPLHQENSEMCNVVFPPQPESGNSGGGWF
T1 sequence (P04785 20-509 partner): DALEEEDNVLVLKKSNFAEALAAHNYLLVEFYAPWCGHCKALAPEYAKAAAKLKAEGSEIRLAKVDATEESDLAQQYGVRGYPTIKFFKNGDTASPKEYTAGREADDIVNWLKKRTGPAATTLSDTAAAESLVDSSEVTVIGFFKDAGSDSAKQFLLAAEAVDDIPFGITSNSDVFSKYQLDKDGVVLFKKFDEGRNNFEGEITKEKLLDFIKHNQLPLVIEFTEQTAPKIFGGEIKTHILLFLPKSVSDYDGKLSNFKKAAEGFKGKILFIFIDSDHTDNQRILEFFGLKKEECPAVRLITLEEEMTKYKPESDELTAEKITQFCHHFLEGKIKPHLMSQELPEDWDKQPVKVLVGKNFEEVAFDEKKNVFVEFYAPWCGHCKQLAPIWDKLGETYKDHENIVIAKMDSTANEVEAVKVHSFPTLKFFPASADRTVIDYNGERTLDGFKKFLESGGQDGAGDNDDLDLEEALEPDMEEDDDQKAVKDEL
Briefly: inhibition of MTP (triglyceride transfer from donor vesicles to acceptor vesicles). Type of assay: biochemical. To be noted: soluble rat MTP, 37° C., 45 min, radiolabeled triglyceride transfer. The method, then: The inhibition of MTP is measured as follows:
Inhibition of the lipid transfer activity of MTP can be quantitated by measuring the inhibition of transfer of radiolabeled triglyceride from donor vesicles to acceptor vesicles in presence of soluble rat MTP. The procedure for preparing MTP is based on the method of Wetterau and Zilversmit (Biochim. Biophys. Acta (1986) 875:610). Briefly rats are decapitated under ether anesthesia. The liver is placed in ice cold sucrose buffer (contains 0.25M sucrose, 50 mM Tris Hcl, 1 mM EDTA, 0.02% sodium azide, pH 7.4) rinsed several times with the sucrose buffer.
All subsequent steps are performed on ice. A 57% homogenate (120 g/210 mL) of rat liver in 0.25 M sucrose buffer is prepared by using a Potter-Elvehjem homogenizer. The homogenate is then centrifuged at 4° C. for 30 min at 13,000×g to remove large cellular organells. The supernatant is then centrifuged for 90 min at 105,000×g to pellet the microsomes. The pellet is resuspended in 10 mM Tris-HCl buffer pH 8.6. and centrifuged for 90 min at 105,000×g. The washed pellet is then resuspended in 1 mM Tris buffer (pH 8.6) and centrifuged for 2 hrs. […] The protein content is measured using the Sigma Lowry micro total protein method and reagents (Sigma Cat. # 690A). […]
MTP activity is measured using a MTP transfer assay. […]

The nature of assay [2]: in vivo cholesterol lowering effect. To be noted: 10 mg/kg p.o. The text has this: The in vivo serum cholesterol lowering effect of the compounds of the invention can be determined by measuring their effect on cholesterol levels in mice, rats or dogs according to methodology well known in the art, e.g., in normolipidemic rats.
Assay [3] concerns apolipoprotein B (Apo B) secretion, Hep G2 cells. The experiment in a line: inhibition of the cellular secretion of Apo B (Hep G2 cells, ELISA). Format: cell-based. As to conditions: Homo sapiens, HepG2, 24 h, secreted Apo B by ELISA. The method, then:
The inhibition of the cellular secretion of Apo B is determined as follows:
Hep G2 cells are maintained in T-75 culture flasks (Corning) in Dulbecco's modified Eagles Medium (DMEM; Gibco-BRL) supplemented with 10% fetal calf serum Gibco-BRL) in a humidified atmosphere containing 5% carbon dioxide until they are confluent. For testing compounds, Hep G2 cells from the T-75 maintenance flasks are harvested and seeded in 96-well culture plates (Corning) and are grown for 72 hours (approximately 80% confluent). Test compound is dissolved at 1 mg/ml (w/v;1-5 mM) in dimethyl sulfoxide DMSO; Sigma) as stock solution. Prior to use, the stock solution of compound is diluted to 133 μM with DMSO and diluted further with growth medium (DMEM containing 10% fetal calf serum) to obtain 1 μM of compound in 100 μL of growth medium. 100 μL of growth medium containing the test compound is added to separate wells of a 96-well culture plate containing Hep G2 cells. For testing dose response of compound, a stock solution of test compound in DMSO is made at 665 μM and various dilutions from this solution are made in growth medium to obtain range of concentration of compound from 0.01 μM to 5 μM in 100 μL of growth medium. 100 μL of the growth medium containing different concentrations of test compound is added to separate wells containing Hep G2 cells. Twenty-four hours later, growth medium is collected and assayed by specific ELISA for apolipoprotein B (Apo B). At the same time Hep G2 cells from wells are assayed for protein (BioRad; cat. # 500-0006) and/or cell viability (Promega; CellTiter 96 Aqueous, cat. # G3581). Inhibitors are identified as compounds that decrease Apo B secretion into the medium without decreasing the total cellular protein and/or cell viability. […] Absorbance of each well is read at 405 nm using a Beckman Biomek workstation. […]
(In an ELISA, binding on a coated surface is turned into a signal by an enzyme label.)

Assay [4] can be described thus: in vivo triglyceride lowering effect. To be noted: 10 mg/kg p.o. The text has this:
The in vivo serum triglyceride lowering effect of the compounds of the invention can be determined by measuring their effect on triglyceride levels in mice, rats or dogs according to methodology well known in the art, e.g., in a model of pre-established hypertriglyceridemia in fructose fed rats or in normolipidemic rats.

Regarding `COC(=O)N[C@@H]1Cc2ccc(NC(=O)c3cccc(C)c3-c3ccc(C(F)(F)F)cc3)cc2C1` [13(i), (R)-6-methyl-4'-trifluoromethylbiphenyl-2-carboxylic acid (2-methoxycarbonylaminoindan-5-yl)-amide], the IC50 is about 70 nM in assay [1] and about 0.7 nM in assay [3]. Also, the lowers plasma cholesterol entry in assay [2] is “lowers both plasma triglycerides and cholesterol”. In assay [4], the lowers plasma triglycerides result was “lowers both plasma triglycerides and cholesterol”.

Take `Cc1cccc(C(=O)Nc2ccc3c(c2)C[C@@H](NS(C)(=O)=O)C3)c1-c1ccc(C(F)(F)F)cc1` [Example 13b]: the figures for the IC50 in assay [1] and in assay [3] were about 60 nM and about 1.8 nM, respectively.

The molecule `CS(=O)(=O)N[C@@H]1Cc2ccc(NC(=O)c3cc(F)ccc3-c3ccc(C(F)(F)F)cc3)cc2C1` [13(al)] gave an IC50 in assay [3] of about 3 nM.

Usually IC50 stands for the concentration that inhibits the measured activity by half. High values mean weaker potency in that assay, low ones greater potency in that assay.

The record behind these values is patent US6197798A, “Amino-benzocycloalkane derivatives” (Novartis AG, priority 1999, dated 2001).
